Data from patent publication US8163743B2, “4-carboxamide indazole derivatives useful as inhibitors of PI3-kinases” (GlaxoGroupLimited, priority 2008, dated 2012).

Tests used:
[1] = test system: IFN-γ or IL-5 production in human PBMC; test: Inhibition of Interferon-Gamma (IFN-γ) or IL-5 production in human PBMC assay (MSD technology); assay type: cell-based; conditions: human PBMC assay or a similar assay; CYTOSTIM stimulation, 20 hours; read-out: mean pIC50 (converted)
Protocol: Inhibition of Interferon-Gamma (IFN-γ) or IL-5 Production in Human PBMC (Peripheral Blood Mononuclear Cell) Assay (MSD Technology)
A 96-well plate (96 MicroWell™ Plates Nunclon™—High Flange Design, Fisher Scientific UK, Loughborough, UK) is prepared by initially adding to column 1 ca. 10 mM of test compound dissolved in DMSO. […] The compound is further diluted with DMSO into columns 2 to 9 by 8 successive 4-fold dilutions using the Biomek® 2000 Laboratory Automation Workstation (Beckman Coulter, Inc., Fullerton, Calif.). Column 10 is used as a DMSO negative control (High Signal, 0% response), whilst column 11, which contains 10 mM of the pan-PI3K inhibitor wortmannin, is used as a positive control (Low Signal, 100% response). About 1 μl of compound is transferred to the compound plate using the Biomek® FX.
PBMC cells (peripheral blood mononuclear cells) are prepared from heparinised human blood (using 1% v/v Heparin Sodium 10001 U/ml Endotoxin Free, Leo Laboratories Ltd., Dublin. Ireland, Cat No: PL0043/0149) from normal volunteers using the Accuspin™ System-Histopaque®-1077 essentially (Sigma-Aldrich Company Ltd., Gillingham Dorset, UK). About 20 ml of blood is overlaid onto 15 ml Histopaque® in Accuspin™ tubes. The tube is then centrifuged at about 800 g for ca. 20 minutes. The cells are collected from the interface, washed by centrifugation (ca. 1300 g, ca. 10 minutes) and resuspended in assay medium (Low endotoxin RPMI1640 medium, Cat No: 31870-025, Invitrogen Corporation Invitrogen Ltd, Paisley, UK) containing 10% foetal calf serum (Invitrogen Corporation, Cat No: CT2507), 2 mM L-glutamine (Invitrogen Corporation, Cat No: 25030024), 10 U/ml penicillin and 10 μg/ml streptomycin (Invitrogen Corporation, Cat No: 15140-122). Viable cells are counted by trypan blue staining and diluted to 6.6×10^5 viable cells/ml. About 150 μl of diluted cells are then added to the compound plate and incubated 37 degrees C. for 1 hour prior to addition of 50 μl of 0.125% (v/v) CYTOSTIM (Cat No: 130-092-173, Miltenyi Biotec Ltd., Bisley, Surrey, UK) diluted in assay medium. The assay plate is then incubated at 37° C., 5% CO2, for 20 hours. The supernatant is removed and the concentrations of IFN-γ and IL-5 are determined by electrochemiluminescence assay using the Meso Scale Discovery (MSD) technology (Meso Scale Discovery, Gaithersburg, Md., USA) as described below.
Supernants were assayed using MSD (Meso Scale Discovery) technology using either the ultra sensitive IFN-γ single plex or the IFN-γ/IL-5 multiplex 96-well plates (MA6000). For the IL-5/IFNg multiplex, Human Serum Cytokine Assay Diluent (25 μl) is added to the plates precoated with anti-cytokine antibody and then incubated for 24 hours at 4° C. to prevent non-specific binding. This blocking step is not required for the Ultrasensitive IFN-γ plates. About 25 μl of supernatant from the PBMC plate is then transferred from columns 1-11 to columns 1-11 of the MSD plate using the Biomek FX. About 25 μl of standard (IFN-γ Cat No. Calibrator C0AE, IL-5 Cat No. Calibrator C01AJ, Meso Scale Discovery) are added to column 12 of the MSD plate to generate a standard calibration curve (about 0 to 10000 pg/ml final). Plates are washed after 2 hours shaking with a Skanwasher 300 version B (Skatron Instruments AS. PO Box 8, N-3401 Lier, Norway). […] About 150 μl of Read Buffer T (2×) is added to the plates, which are then read on a MSD Sector 6000. […]

CK2 protein kinase = CK2 protein kinase (Homo sapiens, UniProt P68400); conditions: background, literature; cited from earlier work
Sequence of CK2 protein kinase (P68400 whole entry): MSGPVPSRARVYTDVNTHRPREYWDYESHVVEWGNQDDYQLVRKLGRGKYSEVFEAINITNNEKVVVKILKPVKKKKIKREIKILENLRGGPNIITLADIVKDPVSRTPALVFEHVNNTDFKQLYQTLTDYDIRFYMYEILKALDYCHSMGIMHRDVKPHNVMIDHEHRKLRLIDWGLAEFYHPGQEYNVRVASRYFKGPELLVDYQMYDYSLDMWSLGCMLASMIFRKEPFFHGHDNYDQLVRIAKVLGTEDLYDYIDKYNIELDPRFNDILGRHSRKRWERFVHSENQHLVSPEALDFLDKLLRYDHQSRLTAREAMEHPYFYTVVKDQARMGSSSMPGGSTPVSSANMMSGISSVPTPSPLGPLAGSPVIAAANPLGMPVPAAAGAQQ

| SMILES | IC50 [1] | other results |
| --- | --- | --- |
| COc1ncc(-c2cc(NC(=O)c3csc(CN4C[C@@H](C)O[C@@H](C)C4)n3)c3cnn(C)c3c2)cc1NS(C)(=O)=O [2-{[(2R,6S)-2,6-dimethyl-4-morpholinyl]methyl}-N-(1-methyl-6-{6-(methyloxy)-5-[(methylsulfonyl)amino]-3-pyridinyl}-1H-indazol-4-yl)-1,3-thiazole-4-carboxamide] | ≤ 10 µM |  |
| COc1ncc(-c2cc(NC(=O)c3csc(CN4C[C@@H](C)O[C@@H](C)C4)n3)c3cn[nH]c3c2)cc1NS(C)(=O)=O [2-{[(2R,6S)-2,6-dimethyl-4-morpholinyl]methyl}-N-(6-{6-(methyloxy)-5-[(methylsulfonyl)amino]-3-pyridinyl}-1H-indazol-4-yl)-1,3-thiazole-4-carboxamide] | ≤ 10 µM |  |
| COc1ncc(-c2cc(NC(=O)c3csc(CN4C[C@@H](C)O[C@@H](C)C4)n3)c3cn[nH]c3c2)cc1NS(=O)(=O)CC(F)(F)F [2-{[(2R,6S)-2,6-dimethyl-4-morpholinyl]methyl}-N-[6-(6-(methyloxy)-5-{[(2,2,2-trifluoroethyl)sulfonyl]amino}-3-pyridinyl)-1H-indazol-4-yl]-1,3-thiazole-4-carboxamide] | ≤ 10 µM |  |
| COc1ccccc1S(=O)(=O)Nc1cc(-c2cc(NC(=O)c3csc(CN4C[C@@H](C)O[C@@H](C)C4)n3)c3cn[nH]c3c2)cnc1OC [2-{[(2R,6S)-2,6-dimethyl-4-morpholinyl]methyl}-N-{6-[6-(methyloxy)-5-({[2-(methyloxy)phenyl]sulfonyl}amino)-3-pyridinyl]-1H-indazol-4-yl}-1,3-thiazole-4-carboxamide] | ≤ 10 µM |  |
| COc1ncc(-c2cc(NC(=O)c3csc(CN4C[C@@H](C)O[C@@H](C)C4)n3)c3cn[nH]c3c2)cc1NS(=O)(=O)c1ccc(F)cc1F [Example 94, N-{6-[5-{[(2,4-Difluorophenyl)sulfonyl]amino}-6-(methyloxy)-3-pyridinyl]-1H-indazol-4-yl}-2-{[(2R,6S)-2,6-dimethyl-4-morpholinyl]methyl}-1,3-thiazole-4-carboxamide] |  | melting point: 211 to 212 °C |
| O=c1cc(N2CCOCC2)oc2c(-c3ccccc3)cccc12 [LY294002] |  | IC50 (CK2 protein kinase): 5 to 10 µM |
| COc1ncc(-c2cc(NC(=O)c3csc(CN4C[C@@H](C)O[C@@H](C)C4)n3)c3cn[nH]c3c2)cc1NS(=O)(=O)c1ccc(F)cc1F [N-{6-[5-{[(2,4-difluorophenyl)sulfonyl]amino}-6-(methyloxy)-3-pyridinyl]-1H-indazol-4-yl}-2-{[(2R,6S)-2,6-dimethyl-4-morpholinyl]methyl}-1,3-thiazole-4-carboxamide] | ≤ 10 µM |  |
